We go through 29 molecules from ChEMBL document CHEMBL3217450, “Structure based virtual screening for discovery of novel human neutrophil elastase inhibitors” (Medchemcomm, 2012).

One data set concerns the target T1, Neutrophil elastase (Homo sapiens, UniProt P08246).
T1 sequence (P08246 whole entry): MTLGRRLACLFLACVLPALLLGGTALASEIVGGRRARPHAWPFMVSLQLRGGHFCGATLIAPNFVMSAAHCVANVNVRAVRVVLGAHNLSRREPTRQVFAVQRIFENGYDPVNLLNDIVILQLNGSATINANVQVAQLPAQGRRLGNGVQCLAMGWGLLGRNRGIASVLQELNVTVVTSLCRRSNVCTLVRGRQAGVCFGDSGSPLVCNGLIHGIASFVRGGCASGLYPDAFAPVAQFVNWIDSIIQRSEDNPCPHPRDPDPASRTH
The data set is described as follows: Inhibition of human neutrophil elastase using N-MeOSuc-Ala-Ala-Pro-Val-p-nitroanilide as substrate incubated for 30 mins prior to substrate addition measured for 60 mins by chromogenic 96 well microplate assay.

The target in data set [1] is T2, Neutrophil elastase (Homo sapiens) (UniProt P08246).
T2 sequence (whole entry): T1 sequence (P08246 whole entry)
The data set is described as follows: Competitive inhibition of human neutrophil elastase assessed as product formation using N-MeOSuc-Ala-Ala-Pro-Val-p-nitroanilide as substrate measured for 120 mins by chromogenic 96 well microplate assay.

Data set [2] can be described thus: Cytotoxicity against mouse NIH/3T3 cells after 24 hrs. The data set is classed as cell-based. The following applies: NIH3T3, 24 h.
The target in another data set is T3, Cathepsin G (Homo sapiens, UniProt P08311).
T3 sequence (P08311 whole entry): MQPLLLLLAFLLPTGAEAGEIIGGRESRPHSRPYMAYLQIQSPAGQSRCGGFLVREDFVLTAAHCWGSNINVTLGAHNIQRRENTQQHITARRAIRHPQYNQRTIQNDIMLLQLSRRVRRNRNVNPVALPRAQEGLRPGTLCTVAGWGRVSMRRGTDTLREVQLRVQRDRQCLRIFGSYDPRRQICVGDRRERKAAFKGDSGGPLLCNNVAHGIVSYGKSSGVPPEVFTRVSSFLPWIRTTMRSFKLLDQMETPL
Briefly: Inhibition of cathepsin G in human neutrophil using Suc-Ala-Ala-Pro-Phe-p-nitroanilide as chromogenic substrate incubated for 30 mins prior to substrate addition measured for 30 mins by progress curve method.

The subject of the next data set is HEK-293T. Briefly: Cytotoxicity against human HEK293T cells after 24 hrs. The data set is classed as cell-based.
In a further data set the target is T4, Myeloblastin (Homo sapiens, UniProt P24158).
T4 sequence (P24158 whole entry): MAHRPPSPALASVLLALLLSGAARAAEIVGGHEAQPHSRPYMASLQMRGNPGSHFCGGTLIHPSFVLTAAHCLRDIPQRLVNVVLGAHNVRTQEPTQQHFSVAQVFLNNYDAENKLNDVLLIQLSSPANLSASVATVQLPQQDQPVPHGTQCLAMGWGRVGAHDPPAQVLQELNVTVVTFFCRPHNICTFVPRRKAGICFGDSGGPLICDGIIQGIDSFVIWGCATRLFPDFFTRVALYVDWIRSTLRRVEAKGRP
The data set is described as follows: Inhibition of proteinase 3 in human neutrophil using N-MeOSuc-Ala-Ala-Pro-Val-p-nitroanilide as chromogenic substrate measured for 60 mins by chromogenic assay.

The next data set has as its target Pancreatic elastase (Sus scrofa, UniProt P08419+P00772). Briefly: Inhibition of porcine pancreatic elastase using MeO-Suc-Ala-Ala-Pro-Val-AMC as substrate incubated for 30 mins prior to substrate addition measured for 30 mins by incubation method based fluorescence analysis. The data set is classed as protein assay.
A short description of data set [3]: Chemical stability of the compound in phosphate buffer at pH 7.4 assessed as compound remaining at 50 uM after 2 days by HPLC analysis. The settings on record: read-out: Stability. The format is physicochemical.
Data set [4] can be described thus: Metabolic stability in Sprague-Dawley rat pooled liver microsomes assessed as compound remaining after 2 days by HPLC analysis in absence of NADPH generating system. The data set is classed as ADME. The settings on record: read-out: Stability.
Data set [5] in a line: Chemical stability of the compound in phosphate buffer at pH 7.4 assessed as compound remaining at 100 uM after 2 days by HPLC analysis. The data set is classed as physicochemical. The following applies: read-out: Stability.
Data set [6] can be described thus: Metabolic stability in human plasma assessed as compound remaining after 2 days by HPLC analysis. The format is ADME, cell-free. The following applies: read-out: Stability.
Data set [7] in a line: Metabolic stability in Sprague-Dawley rat pooled liver microsomes assessed as compound remaining after 2 days by HPLC analysis in presence of NADPH generating system. The data set is classed as ADME. The following applies: read-out: Stability. (Liver microsomes are vesicles of endoplasmic reticulum, rich in cytochrome P450 enzymes.)

Residues, ends and D or L forms follow the SMILES beside them. *: point of attachment. MeOSuc = COC(=O)CCC(=O)*; CH2Cl = ClC*

By IC50 is commonly meant the point on the concentration scale where inhibition reaches its midpoint. Regarding `O=C(Cc1cn2ccsc2n1)N/N=C/c1cn(-c2ccccc2)nc1-c1cccs1`, the concentration for half-maximal inhibition (IC50) entry against Neutrophil elastase was “ND(Insoluble)”.

Regarding `COc1ccc(CCNC(=O)C(Sc2ccccn2)c2ccccc2)cc1OC` (stereo unspecified), the half-maximal inhibitory concentration (IC50) at Neutrophil elastase (read-out: IC50) was over 100 µM.

With `Oc1ccc2c(c1)Oc1ncn3nc(CO/N=C/c4ccccc4)nc3c1C2c1ccccc1` (stereo unspecified), on Neutrophil elastase (read-out: IC50), the concentration for half-maximal inhibition (IC50) is over 100 µM.

On to `COc1ccc(C(=O)CSc2nnc(COc3ccccc3)n2Cc2ccccc2)cc1`, for which the IC50 result on Neutrophil elastase is “ND(Insoluble)”. For `COC(=O)CCC(=O)N[C@@H](C)C(=O)N[C@@H](C)C(=O)N1CCC[C@H]1C(=O)N[C@@H](C)C(=O)CCl` (MeOSuc-AAPA-CH2Cl), on Neutrophil elastase (read-out: IC50), the IC50 was found to be 20.3 µM.

As for `COc1ccc(-n2c(COc3ccc4ccccc4c3)nnc2SCC(=O)O)cc1`, the IC50 on Neutrophil elastase (read-out: IC50) was over 100 µM.

`O=C(O)CSc1nnc(CSc2nc3ccccc3s2)n1-c1ccccc1`: the IC50 at Neutrophil elastase (read-out: IC50) is over 100 µM.

`O=C(CSc1nnc2scc(-c3ccc(Cl)cc3)n12)NCc1cccnc1`: the IC50 at Neutrophil elastase (read-out: IC50) is over 100 µM.

With `Cc1sc(NC(=O)CSc2nnc(Cc3ccccc3)n2C)nc1-c1ccccc1`, the half-inhibitory concentration (IC50) entry at Neutrophil elastase is “ND(Insoluble)”. For the molecule `C=CCn1c(=O)c2ccccc2n2c(SCC(=O)NCc3cccs3)nnc12`, the IC50 entry against Neutrophil elastase is “ND(Insoluble)”. On the same count and under the same terms, under `CCC(Sc1nc(-c2ccccc2)cc(-c2ccccc2)n1)C(=O)Nc1nnc(C)s1` (stereo unspecified) stands “ND(Insoluble)”; under `O=C(CSc1nc2ccccc2n1Cc1ccccc1F)NCc1ccc2c(c1)OCO2`, “ND(Insoluble)”; under `NC(=O)CSc1nnc2c3c4c(sc3nc(SCc3ccccc3)n12)CCCC4`, “ND(Insoluble)”. Still for that read-out and setting: for `C=CCn1c(Cc2ccccc2)nnc1SCC(=O)Nc1nc(-c2ccccc2)cs1` the value was “ND(Insoluble)”. Regarding `NC(=O)CSc1nnc2c3c4c(sc3nc(SCc3ccccc3)n12)CCC4`, at Neutrophil elastase (read-out: IC50), the IC50 is over 100 µM. Still for that read-out and setting: for `O=C(CSc1nnc(Cc2ccccc2)n1Cc1ccccc1)NCc1ccco1` the value was over 100 µM. Consider `COC(=O)C(CSCc1ccccc1)NC(=O)CSc1nc2ccccc2[nH]1` (stereo unspecified), for which the IC50 on Neutrophil elastase (read-out: IC50) is over 100 µM.

As to `O=C(NCc1ccccc1)c1ccc2nc(-c3ccccn3)c(-c3ccccn3)nc2c1`, the IC50 on Neutrophil elastase (read-out: IC50) is over 100 µM.

For the molecule `O=C(Oc1coc(CSc2nnc(NC(=O)C3CC3)s2)cc1=O)c1cccc(F)c1`, the 50% inhibitory concentration (IC50) at Neutrophil elastase (read-out: IC50) was 18.4 µM; in data set [2], over 134 µM; at Cathepsin G, over 134 µM; in the data set with HEK-293T, over 134 µM; against Myeloblastin, over 134 µM; on Pancreatic elastase it was over 134 µM. Moreover, the inhibition entry in data set [1] was “Dose-dependent effect”. Also, the remaining at 48 h, 50 µM in data set [3] was over 80%. Regarding `Nc1nnc(SC(C(=O)Nc2cc(Cl)cc(Cl)c2)c2ccccc2)[nH]1` (stereo unspecified), the IC50 is 26.9 µM at Neutrophil elastase (read-out: IC50); over 139 µM in [2]; over 139 µM at Cathepsin G; over 139 µM in the data set with HEK-293T; over 139 µM against Myeloblastin; over 139 µM on Pancreatic elastase. Further, the inhibition result in [1] was “Dose-dependent effect”. Further, the remaining at 48 h in data set [4], in data set [6] and in [7] was over 80% in each case. For the same molecule, the remaining at 48 h, 100 µM in data set [5] is over 80%. Regarding `Cc1ccc(-n2c(COc3ccc4ccccc4c3)nnc2SCC(=O)O)cc1`, the 50% inhibitory concentration (IC50) at Neutrophil elastase (read-out: IC50) was over 100 µM. On the same count and under the same terms, under `Nc1c(C(=O)NCc2cccs2)c2nc3ccccc3nc2n1/N=C/c1ccccn1` stands 17.6 µM. Still for that read-out and setting: for `Cc1occc1-c1nnc(SCC(=O)NCCc2ccccc2)n1C(C)c1ccccc1` (stereo unspecified) the value was over 100 µM.

On to `COc1ccc(C(=O)CSc2nnc(COc3ccccc3)n2Cc2ccco2)cc1`, for which the 50% inhibitory concentration (IC50) result against Neutrophil elastase is “ND(Insoluble)”. For the molecule `COc1ccc(-n2c(COc3ccc4ccccc4c3)nnc2SCC(N)=O)cc1`, the IC50 on Neutrophil elastase (read-out: IC50) is over 100 µM.

As to `CCOC(=O)C(CSCc1ccccc1)NC(=O)c1coc(-c2ccc(N)cc2)n1` (stereo unspecified), the IC50 at Neutrophil elastase (read-out: IC50) was found to be 32.1 µM. As to `O=C(CSc1nnc(C2CC2)n1Cc1ccccc1)NCc1ccccc1`, the IC50 at Neutrophil elastase (read-out: IC50) is over 100 µM. With `c1ccc(-c2noc(CSc3nnc(Cc4cccs4)n3-c3ccccc3)n2)cc1`, on Neutrophil elastase, the 50% inhibitory concentration (IC50) result is reported as “ND(Insoluble)”. For the molecule `CCC(N)c1nc(C(=O)NC(Cc2ccccc2)C(=O)OCc2ccccc2)co1` (stereo unspecified), at Neutrophil elastase (read-out: IC50), the IC50 was over 100 µM.
